This passage reports Ki results from patent US9815796B2 (Merck Sharp & Dohme Corp., priority 2013, dated 2017).

One assay addresses Rhesus PDE2A3 (Macaca mulatta, UniProt B3VTJ2). Put plainly: PDE2 fluorescence polarization (IMAP FP) inhibition assay, rhesus enzyme. The assay is classed as biochemical, rhesus macaque. In outline:
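IMAP FP (mP from parallel and perpendicular fluorescence against substrate-only control) was read ≥1 h after adding binding reagent. The preceding 60 min room-temperature reaction contained FAM-cAMP (50 nM) and cGMP (1 uM) in pH 7.2 Tris buffer with MgCl2 and DTT. Enzyme was supernatant of sonicated AD293 cells expressing rhesus PDE2A3; compounds were 3-fold titrated, DMSO 1% final.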
For orientation: Fluorescence polarisation rises when a labelled molecule tumbles more slowly, as on binding a larger partner.

Another assay addresses human PDE2A1 (Homo sapiens (Human), UniProt O00408). Description: IMAP FP PDE selectivity panel, human PDE2A1. The assay is classed as biochemical. In outline: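 IMAP FP format: substrate 50 nM FAM-cAMP plus 1000 nM cGMP, enzyme (insect-cell GST-tagged human PDE2A1) at ~20% conversion, 60 min reaction at room temperature. Apparent inhibition constants calculated from parallel/perpendicular fluorescence with KM 10,000 nM.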

Where [1] appears, read: Rhesus PDE2, Lab B, read-out: Rhesus PDE2 Ki (nM) - Lab B.
The mark [2] stands for this setting: Human PDE2, Lab B, read-out: Human PDE2 Ki (nM) - Lab B.
Setting [3] is: Rhesus PDE2, Lab A, read-out: Rhesus PDE2 Ki (nM) - Lab A.
[4] abbreviates: Human PDE2, Lab A, read-out: Human PDE2 Ki (nM) - Lab A.

The Ki is the equilibrium dissociation constant of an inhibitor or competing ligand from its target.

SMILES strings stand for the structures. Like-named read-outs stand apart in the source and are kept apart here.

Sequence of Rhesus PDE2A3 (B3VTJ2 1-941): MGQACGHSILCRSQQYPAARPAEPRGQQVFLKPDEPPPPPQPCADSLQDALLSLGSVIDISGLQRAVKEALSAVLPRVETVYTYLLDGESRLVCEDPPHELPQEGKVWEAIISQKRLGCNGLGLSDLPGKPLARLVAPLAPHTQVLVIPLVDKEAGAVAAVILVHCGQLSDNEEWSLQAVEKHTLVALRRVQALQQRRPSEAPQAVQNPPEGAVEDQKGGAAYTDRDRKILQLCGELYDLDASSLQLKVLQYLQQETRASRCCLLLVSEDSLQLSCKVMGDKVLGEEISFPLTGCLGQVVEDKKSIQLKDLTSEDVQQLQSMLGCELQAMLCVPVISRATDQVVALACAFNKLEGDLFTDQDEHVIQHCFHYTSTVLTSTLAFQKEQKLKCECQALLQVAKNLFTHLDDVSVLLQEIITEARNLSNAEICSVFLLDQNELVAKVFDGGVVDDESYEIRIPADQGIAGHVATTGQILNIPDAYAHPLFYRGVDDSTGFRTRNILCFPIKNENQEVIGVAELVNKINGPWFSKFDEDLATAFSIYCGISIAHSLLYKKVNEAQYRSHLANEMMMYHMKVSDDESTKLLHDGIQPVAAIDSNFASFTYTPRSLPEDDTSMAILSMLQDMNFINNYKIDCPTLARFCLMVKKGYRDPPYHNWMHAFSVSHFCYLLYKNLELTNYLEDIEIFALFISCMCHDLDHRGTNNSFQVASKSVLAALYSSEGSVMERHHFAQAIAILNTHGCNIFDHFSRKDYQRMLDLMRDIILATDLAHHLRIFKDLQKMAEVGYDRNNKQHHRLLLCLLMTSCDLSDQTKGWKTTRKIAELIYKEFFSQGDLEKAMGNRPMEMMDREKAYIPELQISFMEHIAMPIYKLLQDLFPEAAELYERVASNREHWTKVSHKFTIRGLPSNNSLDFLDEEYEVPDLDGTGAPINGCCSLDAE
Sequence of human PDE2A1 (O00408 other isoform, or with tags, fused parts or gaps): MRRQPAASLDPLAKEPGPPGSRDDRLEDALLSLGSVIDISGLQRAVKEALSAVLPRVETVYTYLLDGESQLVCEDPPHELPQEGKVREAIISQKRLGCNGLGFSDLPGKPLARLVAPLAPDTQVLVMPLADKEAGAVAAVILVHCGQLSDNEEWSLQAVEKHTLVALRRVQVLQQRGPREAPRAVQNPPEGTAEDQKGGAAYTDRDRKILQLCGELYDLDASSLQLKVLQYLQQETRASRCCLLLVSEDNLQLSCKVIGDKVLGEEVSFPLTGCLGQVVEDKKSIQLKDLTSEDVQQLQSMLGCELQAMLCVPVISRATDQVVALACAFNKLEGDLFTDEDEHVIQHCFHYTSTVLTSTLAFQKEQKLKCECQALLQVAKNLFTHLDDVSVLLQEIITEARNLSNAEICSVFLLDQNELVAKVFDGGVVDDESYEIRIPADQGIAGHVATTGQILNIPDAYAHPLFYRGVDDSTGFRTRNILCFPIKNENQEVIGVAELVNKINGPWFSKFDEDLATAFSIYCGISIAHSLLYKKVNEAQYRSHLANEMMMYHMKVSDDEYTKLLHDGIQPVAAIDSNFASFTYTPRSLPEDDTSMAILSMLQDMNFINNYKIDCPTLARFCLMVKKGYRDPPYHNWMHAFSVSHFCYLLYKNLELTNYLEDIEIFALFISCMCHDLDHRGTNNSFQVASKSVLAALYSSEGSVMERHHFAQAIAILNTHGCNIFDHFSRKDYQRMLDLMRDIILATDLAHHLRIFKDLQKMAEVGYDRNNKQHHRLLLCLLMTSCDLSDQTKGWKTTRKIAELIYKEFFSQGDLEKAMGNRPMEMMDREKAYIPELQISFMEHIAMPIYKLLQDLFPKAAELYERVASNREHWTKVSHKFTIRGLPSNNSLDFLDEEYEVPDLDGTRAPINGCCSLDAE

As for `C[C@@H](NC(=O)c1cc(=O)[nH]c(-c2ccccc2)n1)c1ccc(Cl)cc1` [Example 418, N-[(1R)-1-(4-chlorophenyl)ethyl]-6-oxo-2-phenyl-1,6-dihydropyrimidine-4-carboxamide], the inhibition constant (Ki) amounted to 48 nM on Rhesus PDE2A3 (setting [1]) and 41 nM on human PDE2A1 (setting [2]).
Turning to `CC[C@@H](NC(=O)c1cc(=O)[nH]c(C(C)(C)c2ccc(OC)cc2)n1)c1ccc(OC(F)(F)F)cc1` [Example 505, 2-[1-(4-methoxyphenyl)-1-methylethyl]-6-oxo-N-{(1R)-1-[4-(trifluoromethoxy)phenyl]propyl}-1,6-dihydropyrimidine-4-carboxamide], the results for the Ki on Rhesus PDE2A3 (setting [1]) and at human PDE2A1 (setting [2]) were 84 nM and 56 nM, respectively.
Take `CC[C@@H](NC(=O)c1cc(=O)[nH]c(COC)n1)c1ccc(OC(F)(F)F)cc1` [Example 119, 2-(methoxymethyl)-6-oxo-N-{(1R)-1-[4-(trifluoromethoxy)phenyl]propyl}-1,6-dihydropyrimidine-4-carboxamide]: the Ki on Rhesus PDE2A3 (setting [3]) stood at 74 nM; at Rhesus PDE2A3 (setting [1]) it was 53 nM; at human PDE2A1 (setting [4]), 17 nM.
Turning to `CC(C)(C)[C@@H](NC(=O)c1cc(=O)[nH]c(C2CC2)n1)c1ccc(C(F)(F)F)cc1F` [Example 445, 2-cyclopropyl-N-{(1R)-1-[2-fluoro-4-(trifluoromethyl)phenyl]-2,2-dimethylpropyl}-6-oxo-1,6-dihydropyrimidine-4-carboxamide], the Ki worked out at 2.1 nM on Rhesus PDE2A3 (setting [1]) and 1.7 nM at human PDE2A1 (setting [2]).
As for `C[C@@H](NC(=O)c1cc(=O)[nH]c(-c2ccccc2)n1)c1ccc(C2CC2)cc1` [Example 423, N-[(1R)-1-(4-cyclopropylphenyl)ethyl]-6-oxo-2-phenyl-1,6-dihydropyrimidine-4-carboxamide], the figures for the inhibition constant (Ki) on Rhesus PDE2A3 (setting [3]) and on human PDE2A1 (setting [2]) were 3 nM and 5.6 nM, respectively.
As for `C[C@@H](NC(=O)c1cc(=O)[nH]c(-c2ccccc2)n1)c1ccc(S(F)(F)(F)(F)F)cc1` [Example 401, 6-oxo-N-{(1R)-1-[4-(pentafluoro-λ^6-sulfanyl)phenyl]ethyl}-2-phenyl-1,6-dihydropyrimidine-4-carboxamide], the Ki at Rhesus PDE2A3 (setting [1]) is 5.2 nM; at human PDE2A1 (setting [2]) it was 5.8 nM.
For `C[C@@H](NC(=O)c1cc(=O)[nH]c(C2CC2)n1)c1ccc(CC(F)(F)F)cc1` [Example 217, 2-cyclopropyl-6-oxo-N-{(1R)-1-[4-(2,2,2-trifluoroethyl)phenyl]ethyl}-1,6-dihydropyrimidine-4-carboxamide], the Ki at Rhesus PDE2A3 (setting [3]) stood at 29 nM; at human PDE2A1 (setting [4]), 14 nM.
Turning to `CC[C@@H](NC(=O)c1cc(=O)[nH]c(-c2ccccc2)n1)c1ccc(S(F)(F)(F)(F)F)cc1` [Example 386, 6-oxo-N-{(1R)-1-[4-(pentafluoro-λ^6-sulfanyl)phenyl]propyl}-2-phenyl-1,6-dihydropyrimidine-4-carboxamide], the figures for the Ki on Rhesus PDE2A3 (setting [1]) and on human PDE2A1 (setting [2]) were 8.1 nM and 6.5 nM, respectively.
`C[C@@H](NC(=O)c1cc(=O)[nH]c(-c2ncccn2)n1)c1ccc(OC(F)(F)F)c(F)c1` [Example 103, N-{(1R)-1-[3-fluoro-4-(trifluoromethoxy)phenyl]ethyl}-6-oxo-1,6-dihydro-2,2′-bipyrimidine-4-carboxamide]: the Ki at Rhesus PDE2A3 (setting [3]) was 5.5 nM; at human PDE2A1 (setting [4]), 3.4 nM.
In the same order, the values of `O=C(N[C@@H](c1ccc(OC(F)(F)F)cc1)C1CC1)c1cc(=O)[nH]c(-c2ccccc2)n1` [Example 175, N-{(R)-cyclopropyl[4-(trifluoromethoxy)phenyl]methyl}-6-oxo-2-phenyl-1,6-dihydropyrimidine-4-carboxamide] are 3.9 nM and 3.9 nM.
For `C[C@@H](NC(=O)c1cc(=O)[nH]c(C2CC2)n1)c1ccc(C(F)(F)F)c(Cl)c1` [Example 232, N-{(1R)-1-[3-chloro-4-(trifluoromethyl)phenyl]ethyl}-2-cyclopropyl-6-oxo-1,6-dihydropyrimidine-4-carboxamide] the same measures were 29 nM and 17 nM.
`Cc1nc(C(=O)N[C@@H](c2ccc(C(F)(F)F)cc2)C2(C)CC2)cc(=O)[nH]1` [Example 612, 2-methyl-N-{(R)-(1-methylcyclopropyl)[4-(trifluoromethyl)phenyl]methyl}-6-oxo-1,6-dihydropyrimidine-4-carboxamide]: the Ki on Rhesus PDE2A3 (setting [1]) and at human PDE2A1 (setting [2]) was 11 nM in each case.
Regarding `COc1ccc(Cc2nc(C(=O)N[C@@H](c3ccc(S(F)(F)(F)(F)F)cc3)C(C)C)cc(=O)[nH]2)cc1` [Example 471, 2-(4-methoxybenzyl)-N-[(1R)-2-methyl-1-[4-(pentafluoro-λ^6-sulfanyl)phenyl]propyl}-6-oxo-1,6-dihydropyrimidine-4-carboxamide], the Ki on Rhesus PDE2A3 (setting [1]) and on human PDE2A1 (setting [2]) was 1.5 nM in each case.
With `C[C@@H](O)[C@@H](NC(=O)c1cc(=O)[nH]c(-c2ccccc2)n1)c1ccc(C(F)(F)F)cc1` [Example 392, N-{(1S,2R)-2-hydroxy-1-[4-(trifluoromethyl)phenyl]propyl}-6-oxo-2-phenyl-1,6-dihydropyrimidine-4-carboxamide], the Ki at Rhesus PDE2A3 (setting [1]) came out at 5.5 nM; on human PDE2A1 (setting [2]) it was 3.3 nM.
Take `Cc1nc(C(=O)NC2(c3ccc(C(F)(F)F)cc3)CCCC2)cc(=O)[nH]1` [Example 270, 2-methyl-6-oxo-N-{1-[4-(trifluoromethyl)phenyl]cyclopentyl}-1,6-dihydropyrimidine-4-carboxamide]: the Ki was determined as 225 nM on Rhesus PDE2A3 (setting [3]) and 113 nM at human PDE2A1 (setting [4]).
For `CC(C)[C@@H](NC(=O)c1cc(=O)[nH]c(-c2ccccc2)n1)c1ccc(SC(F)(F)F)cc1` [Example 419, N-[(1R)-2-methyl-1-{4-[(trifluoromethyl)sulfanyl]phenyl}pro-pyl]-6-oxo-2-phenyl-1,6-dihydropyrimidine-4-carboxamide], the Ki on Rhesus PDE2A3 (setting [1]) was found to be 3.3 nM; on human PDE2A1 (setting [2]) it was 2.9 nM.
For `COc1ccc(Cc2nc(C(=O)N[C@@H](c3ccc(OC(F)(F)F)cc3)C3CC3)cc(=O)[nH]2)cc1F` [Example 524, N-{(R)-cyclopropyl[4-(trifluoromethoxy)phenyl]methyl}-2-(3-fluoro-4-methoxybenzyl)-6-oxo-1,6-dihydropyrimidine-4-carboxamide], the Ki on Rhesus PDE2A3 (setting [1]) and at human PDE2A1 (setting [2]) was 2.1 nM in each case.
With `Cc1nc(C(=O)NC2(c3ccc(C(F)(F)F)cc3)CCC2)cc(=O)[nH]1` [Example 2, 2-methyl-6-oxo-N-{1-[4-(trifluoromethyl)phenyl]cyclobutyl}-1,6-dihydropyrimidine-4-carboxamide], the Ki at Rhesus PDE2A3 (setting [3]) turned out to be 38 nM; at human PDE2A1 (setting [4]), 24 nM.
Consider `O=C(NC1(c2ccc(SC(F)(F)F)c(F)c2)CC1)c1cc(=O)[nH]c(-c2ccccc2)n1` [Example 352, N-(1-{3-fluoro-4-[(trifluoromethyl)sulfanyl]phenyl}cyclopropyl)-6-oxo-2-phenyl-1,6-dihydropyrimidine-4-carboxamide], for which the Ki was found to be 15 nM at Rhesus PDE2A3 (setting [3]), 51 nM on Rhesus PDE2A3 (setting [1]) and 54 nM at human PDE2A1 (setting [2]).
With `COc1ccc(Cc2nc(C(=O)N[C@@H](c3ccc(C(F)(F)F)cc3)C(C)(C)C)cc(=O)[nH]2)cc1F` [Example 457, N-{(1R)-2,2-dimethyl-1-[4-(trifluoromethyl)phenyl]propyl}-2-(3-fluoro-4-methoxybenzyl)-6-oxo-1,6-dihydropyrimidine-4-carboxamide], the results for the inhibition constant Ki on Rhesus PDE2A3 (setting [1]) and at human PDE2A1 (setting [2]) were 0.68 nM and 0.64 nM, respectively.
For the compound `CCc1ccc(C(C)NC(=O)c2cc(=O)[nH]c(-c3ccccc3)n2)cc1` (centres unmarked) [Example 165, N-[1-(4-ethylphenyl)ethyl]-6-oxo-2-phenyl-1,6-dihydropyrimidine-4-carboxamide], the Ki at Rhesus PDE2A3 (setting [3]) turned out to be 16 nM; on human PDE2A1 (setting [4]), 12 nM.
